Source: PubChem BioAssay AID1996
In brackets after ≈: the same amount, converted by molar mass.

Details: buffer; pH 7.4; 200.0 µM

Structure (SMILES)	solubility kinetic [µg/mL]
Cc1cc(C)cc(NC(=O)c2ccc3c(c2)CCN3S(C)(=O)=O)c1	0.5 (≈ 1.45 µM)
Cc1ccc2c(c1)c1c3n2CCN(C=O)C3CCC1 (configuration not stated)	28.1 (≈ 110 µM)
Cc1ccc2[nH]cc(/C=C/c3cc[n+](C)cc3)c2c1.[I-]	> 56.4
CCOCCCNC(=O)CN1C(=O)c2cccc3cccc1c23	> 46.9
COc1ccc(C(=O)Nc2cccc(S(=O)(=O)NCc3ccco3)c2)cc1	8.7 (≈ 22.5 µM)
Cc1ccc(-c2nc3ccccc3nc2-c2ccccc2)cc1	1 (≈ 3.37 µM)
CC(C)c1cc(=O)[nH]c(N2CCN(Cc3ccc4c(c3)OCO4)CC2)n1	49.9 (≈ 140 µM)
Cc1ccc(NC(=O)CCOc2ccccc2)cc1	11.7 (≈ 45.8 µM)
COc1ccc(OC)c(S(=O)(=O)N2CCCC(C(=O)NCc3ccccn3)C2)c1 (configuration not stated)	> 62.9
CCOc1ccc(Nc2ccc(N3C(=O)CCC3=O)cc2[N+](=O)[O-])cc1	2.3 (≈ 6.47 µM)
N#C/C(=C\c1ccc2c(c1)OCO2)C(=O)NCc1ccco1	0.6 (≈ 2.03 µM)
COCCCNC1=C(Cl)C(=O)c2ccccc2C1=O	35.5 (≈ 127 µM)
CC(=O)c1cccc(NC(=O)COc2ccc3oc(=O)cc(C)c3c2)c1	1.4 (≈ 3.98 µM)
COc1ccc(N2C(=O)C(C)C(Cc3ccc(C)cc3)C2=O)cc1 (configuration not stated)	2.4 (≈ 7.42 µM)
Clc1ccc(-c2nc(-c3cnccn3)no2)cc1	3.2 (≈ 12.4 µM)
COC(=O)c1sccc1NC(=S)N1CCC(C(N)=O)CC1	42.5 (≈ 130 µM)
CCc1ccc(Nc2ccc(C(=O)O)cc2[N+](=O)[O-])cc1	> 42.9
O=C(O)Cc1ccc(S(=O)(=O)Nc2ccccc2C(=O)O)cc1	43.4 (≈ 129 µM)
O=C(Cc1ccsc1)NCc1ccccc1F	> 37.4
CC1(C)C(=O)Nc2ccccc2N1C(=O)COc1ccc(C#N)cc1	38.1 (≈ 114 µM)
Cc1ccc(N=CNc2ccc(C)cc2C)c(C)c1	35.2 (≈ 139 µM)
COc1nc(N)nc(NC(=O)c2cccs2)c1N=O	25.2 (≈ 90.2 µM)

Structure (SMILES)	solubility kinetic [µg/mL]
Cc1ccccc1Sc1ncccc1[N+](=O)[O-]	5.1 (≈ 20.7 µM)
COc1ccccc1NC(=O)C1CCCN(c2cnccn2)C1 (configuration not stated)	> 46.9
Cc1cc(C)c2c(c1)C1(OCCO1)C(=O)N2	16.1 (≈ 73.4 µM)
CCN1CCN(c2nc(Nc3ccc(OC)cc3)nc(N)c2[N+](=O)[O-])CC1	49.6 (≈ 133 µM)
CC(C)C(=O)Nc1csc(C(F)(F)F)c1-c1ccccc1	12.8 (≈ 40.8 µM)
CN(C)S(=O)(=O)N1CCC(CO)(CCc2ccccc2)CC1	> 49
O=C(c1cccc([N+](=O)[O-])c1)c1ccc2c(c1)OCCOCCOCCO2	> 56
Cc1ccc(OCCn2c(=O)oc3ccc(C)cc32)cc1	< 0.6
O=C(Nc1ccc(F)cc1F)c1cc(Cl)sc1Cl	< 0.7
Oc1ccc2ccccc2c1CNc1ccccn1	9.4 (≈ 37.6 µM)
COc1ccc(C2(c3ccc(OC)cc3)NC(=O)NC2=O)cc1	> 46.8
COCCNC(=O)C(OC(=O)c1cccs1)c1ccc(F)cc1 (configuration not stated)	> 50.6
c1ccc(-n2cccc2)c(N2CCCCC2)c1	< 0.2
COCCNS(=O)(=O)c1ccc(C)c(C)c1C	34.9 (≈ 136 µM)
O=C(O)C1CCN(S(=O)(=O)Cc2ccccc2)CC1	33.3 (≈ 118 µM)
CCc1ccc(C(=O)Nc2cc(C)on2)o1	> 33
Cc1[nH]c2ccc(OCc3ccccc3)cc2c1CCN.Cl	> 47.5
Cl.O=C(CN1CCOCC1)NCc1ccc(F)cc1	> 43.3
O=C(NCc1ccccn1)Nc1ccccc1F	> 36.8
CCOC(=O)c1cc(-c2csc(Nc3ccccc3Cl)n2)on1	0.6 (≈ 1.72 µM)
O=C(COC(=O)c1ccccc1C(F)(F)F)NC(=O)NCc1ccco1	19.5 (≈ 52.7 µM)
COC(=O)c1ccc(S(=O)(=O)N2CCN(CCO)CC2)n1C	45.6 (≈ 138 µM)

Structure (SMILES)	solubility kinetic [µg/mL]
CCOC(=O)C1CCN(C(=O)CN2C(=O)NC(C)(c3ccc4cc(OC)ccc4c3)C2=O)CC1 (configuration not stated)	15.6 (≈ 33.4 µM)
O=C(NCc1ccc(F)cc1)N1CCc2ccccc2C1	39.3 (≈ 138 µM)
CN(CC1COc2ccccc2O1)C(=O)CSc1nncs1 (configuration not stated)	> 50.6
Cc1ccc(Cn2c(CCCO)nc3ccccc32)cc1	34.5 (≈ 123 µM)
Cc1ccc(NC(=O)CNC2CCCCC2)cc1Cl	21.1 (≈ 75.1 µM)
COc1ccc(Nc2nc(OC)nc(N3CCOCC3)n2)cc1	21.8 (≈ 68.7 µM)
Cc1cccc(NC(=O)c2cc(C)nc3ccccc23)c1	0.7 (≈ 2.53 µM)
NCC(=O)Nc1ccc(Br)cc1	27.6 (≈ 120 µM)
CC(=O)c1cc(C#N)c(SCC(=O)Nc2nccs2)nc1C	0.7 (≈ 2.11 µM)
Cc1ccc(S(=O)(=O)NCCC(=O)NCc2cccnc2)cc1	> 50
Cc1ccccc1NCCC(=O)Nc1ccc(Cl)cc1	> 43.3
N/C(=N\OC(=O)c1ccc(Cl)cc1[N+](=O)[O-])c1ccccn1	3 (≈ 9.35 µM)
N#CC(C#N)=Cc1ccc(OCC(=O)N2CCOCC2)cc1	> 44.6
COc1ccccc1Oc1ncnc2sccc12	> 38.7
COc1cccc(C(C)NC(=O)Nc2cc(Cl)ccc2OC)c1 (configuration not stated)	< 0.4
CC1C2(C)OCC(C#N)(C(=N)O2)C1(C#N)C#N (configuration not stated)	> 34.5
COc1ccccc1NC(=O)c1cc(=O)[nH]c2ccccc12	29.7 (≈ 101 µM)
O=S(=O)(c1ccc(-c2ccon2)s1)N1CCCC1	11.5 (≈ 40.4 µM)
CCCSc1sc(C(=O)OC)c(-c2cccs2)c1C#N	< 0.7
NS(=O)(=O)c1ccc(CCNC(=O)c2ccc(=O)[nH]c2)cc1	> 48.2
Cc1cccc(C(=O)Nc2cc(NC(=O)c3cccs3)ccc2C)c1	2 (≈ 5.71 µM)
COc1cccc(C(=O)NCCNC(=O)c2ccccn2)c1	> 44.9

Structure (SMILES)	solubility kinetic [µg/mL]
C#CCn1cc(/C=C2\NC(=O)NC2=O)c2ccccc21	1.2 (≈ 4.52 µM)
CSc1ccc(CNCc2ccco2)cc1.Cl	> 40.5
COc1ccc(CCNC(=O)COC(=O)C2CC2)cc1	25.4 (≈ 91.6 µM)
CCN(CC)c1ccc(/C=C(/C#N)C(=O)NC(C)C)o1	38.6 (≈ 140 µM)
COc1ccc(C(=O)NC2=Nc3ccccc3N=C(C)C2c2ccccc2)cc1 (configuration not stated)	22.6 (≈ 58.9 µM)
O=C1OCc2ccc(NC(=O)c3sccc3Cl)cc21	< 0.6
CC(=O)Nc1ccc(NC(=O)c2cc([N+](=O)[O-])cc([N+](=O)[O-])c2)cc1	7.9 (≈ 22.9 µM)
COc1ccc(C(=O)OCC(=O)N2CCCC2=O)c(OC)c1	40.3 (≈ 131 µM)
NS(=O)(=O)c1ccc(CCNC(=O)c2ccco2)cc1	> 44.1
O=C1/C(=C/c2cccnc2)SC(=S)N1CCc1ccccc1	< 0.3
CC(C)NC(=O)c1c(O)c2cccc3c2n(c1=O)CCC3	< 0.3
COc1ccccc1OCc1nc(C#N)c(N2CCCC2)o1	39.1 (≈ 131 µM)
COc1ccc2cc(C(=O)N3CCN(c4ccccc4F)CC3)[nH]c2c1	1.9 (≈ 5.38 µM)
CCc1ccn2cc(-c3cc(-c4ccccc4)no3)nc2c1	1.5 (≈ 5.18 µM)
CN(CC(=O)Nc1cccnc1Cl)S(=O)(=O)c1ccc(Cl)cc1	24.9 (≈ 66.5 µM)
O=C(NCc1ccco1)c1ccc(S(=O)(=O)N2CCCCC2)cc1	1.9 (≈ 5.45 µM)
O=C(CN1C(=O)CCC1=O)NC(=O)NC1CCCC1	> 40.1
Cc1ccc(C)c(OC(=O)CN2C(=O)c3ccccc3C2=O)c1	4 (≈ 12.9 µM)
CCc1ccccc1NC(=S)N1CCCCCC1	> 39.4
O=C(O)CC[C@@H](C(=O)O)N1C(=O)c2ccccc2C1=O	> 41.6
CC(=O)Nc1ccc2nc(NC(=O)c3ccco3)sc2c1	4.9 (≈ 16.3 µM)
